These results are taken from patent US20260085034A1, “N-(BENZHYDRYL)CYCLOALKYLCARBOXAMIDE DERIVATIVES AS INHIBITORS OF GLYCOGEN SYNTHASE 1 (GYS1) AND METHODS OF USE THEREOF” (Maze Therapeutics, Inc., priority 2022, published 2026).

The target in this assay is T1, recombinant hGYS1/GN1 protein (Homo sapiens, UniProt P13807).
T1 sequence (P13807 1-737): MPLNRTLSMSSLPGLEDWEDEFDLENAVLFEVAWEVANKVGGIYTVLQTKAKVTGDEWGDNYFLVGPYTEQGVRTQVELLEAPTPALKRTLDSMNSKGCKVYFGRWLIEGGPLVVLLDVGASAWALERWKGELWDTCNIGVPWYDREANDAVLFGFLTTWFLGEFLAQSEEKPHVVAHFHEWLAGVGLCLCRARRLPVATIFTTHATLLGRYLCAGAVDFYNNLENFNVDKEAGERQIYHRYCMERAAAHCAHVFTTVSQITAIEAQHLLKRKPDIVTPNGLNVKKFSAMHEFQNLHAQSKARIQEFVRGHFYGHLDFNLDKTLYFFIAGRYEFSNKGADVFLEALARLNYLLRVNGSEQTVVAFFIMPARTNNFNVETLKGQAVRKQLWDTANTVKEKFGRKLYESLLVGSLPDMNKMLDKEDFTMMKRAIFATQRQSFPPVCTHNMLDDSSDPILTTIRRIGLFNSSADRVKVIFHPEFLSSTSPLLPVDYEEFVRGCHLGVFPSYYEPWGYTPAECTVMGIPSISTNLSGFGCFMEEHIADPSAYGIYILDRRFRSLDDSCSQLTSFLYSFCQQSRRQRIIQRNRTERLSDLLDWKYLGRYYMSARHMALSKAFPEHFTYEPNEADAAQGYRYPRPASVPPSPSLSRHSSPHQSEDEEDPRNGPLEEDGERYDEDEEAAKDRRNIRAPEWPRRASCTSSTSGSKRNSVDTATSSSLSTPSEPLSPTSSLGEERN
T1 sequence (P46976 1-350 partner): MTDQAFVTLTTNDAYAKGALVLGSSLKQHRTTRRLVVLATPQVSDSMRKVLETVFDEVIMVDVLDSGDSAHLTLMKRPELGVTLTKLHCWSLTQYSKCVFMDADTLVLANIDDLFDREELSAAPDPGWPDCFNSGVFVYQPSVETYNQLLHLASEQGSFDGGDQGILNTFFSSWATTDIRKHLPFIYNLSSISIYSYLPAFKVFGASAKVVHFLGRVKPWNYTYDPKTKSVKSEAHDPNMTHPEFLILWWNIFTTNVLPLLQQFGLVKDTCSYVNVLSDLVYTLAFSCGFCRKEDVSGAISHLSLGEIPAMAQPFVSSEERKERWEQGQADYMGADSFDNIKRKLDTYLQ
Nature of the assay: GYS1 coupled enzyme assay (PK/LDH). The settings on record: geometric mean of at least 2 assay runs; NADH absorbance at 340 nm. It is filed as biochemical. The method in brief: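 Recombinant hGYS1/GN1 (50 nM) with 0.8 mM UDP-glucose, 0.2% glycogen and 1 mM glucose-6-phosphate in Tris pH 7.5, 2.5% DMSO. UDP formation coupled via PK/LDH to NADH oxidation, read at 340 nm over 10 min. Control-normalized slopes fit to Hill equation; IC50 as geometric mean of ≥2 runs.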

Regarding `CC(C)c1ccc([C@@H](NC(=O)[C@H]2C[C@@H]2F)c2ccn[nH]2)cc1F` (single isomer, unassigned) [compound 11], the IC50 was determined as 145 nM.
